This assay has as its target SARS-CoV-2 Papain-Like Protease (PLpro) (Severe acute respiratory syndrome coronavirus 2 (2019-nCoV) (SARS-CoV-2), UniProt P0DTD1). Kind of assay: biochemical.
[1] abbreviates: SARS-CoV-2 PLpro enzymatic fluorescence assay, read-out: PLpro IC50.
[2] abbreviates: PLpro enzymatic fluorescence assay, class symbols, read-out: PLpro IC50.

Each structure is given as a SMILES string. Read-outs that look alike come from different tables or passages of the source.

Turning to `Cc1ccc(OC[C@@H]2CCN2C)cc1C(=O)NC1(c2cc(Br)cc3ncccc23)CC1` [Compound 563, (S)-N-(1-(7-Bromoquinolin-5-yl)cyclopropyl)-2-methyl-5-((1-methylazetidin-2-yl)methoxy)benzamide], the IC50 under setting [1] is below 100 nM.
Take `Cc1ccc(OC[C@@H]2CCN2C)cc1C(=O)NC1(c2cc(O)nc3ccccc23)CC1` [Compound 565, (S)-N-(1-(2-Hydroxyquinolin-4-yl)cyclopropyl)-2-methyl-5-((1-methylazetidin-2-yl)methoxy)benzamide]: under setting [1], the IC50 was below 100 nM.
As for `COc1cc(C2(NC(=O)c3cc(OC[C@@H]4CCN4C)ccc3C)COC2)c2ccccc2c1` [Compound 566], under setting [2], the IC50 is below 100 nM.
For the compound `COc1cc(C2(NC(=O)c3cc(OC[C@@H]4CCN4CCF)ccc3C)CC2)c2cccnc2c1` [Compound 567, (S)-5-((1-(2-Fluoroethyl)azetidin-2-yl)methoxy)-N-(1-(7-methoxyquinolin-5-yl)cyclopropyl)-2-methylbenzamide], the IC50 under setting [2] was below 100 nM.
For `C=C(C)c1cc(C2(NC(=O)c3cc(OC[C@@H]4CCN4C)ccc3C)CC2)c2cccnc2c1` [Compound 568, (S)-2-Methyl-5-((1-methylazetidin-2-yl)methoxy)-N-(1-(7-(prop-1-en-2-yl)quinolin-5-yl)cyclopropyl)benzamide], under setting [1], the IC50 was below 100 nM.
Where the note is “PLpro IC50, PLpro enzymatic fluorescence assay, class symbols”, `Cc1ccc(OC[C@@H]2CCN2C)cc1C(=O)NC1(c2cc3ccccc3c3ccccc23)CC1` [Compound 569, (S)-2-Methyl-5-((1-methylazetidin-2-yl)methoxy)-N-(1-(phenanthren-9-yl)cyclopropyl)benzamide] showed an IC50 above 5000 nM.
As to `C=Cc1cc(C2(NC(=O)c3cc(OC[C@@H]4CCN4C)ccc3C)CC2)c2cccnc2c1` [Compound 570, (S)-2-Methyl-5-((1-methylazetidin-2-yl)methoxy)-N-(1-(7-vinylquinolin-5-yl)cyclopropyl)benzamide], under setting [2], the IC50 was below 100 nM.
As for `COc1cc(C2(NC(=O)c3cc(OCCN(C)CCF)ccc3C)CC2)c2cccnc2c1` [Compound 571, 5-(2-((2-Fluoroethyl)(methyl)amino)ethoxy)-N-(1-(7-methoxyquinolin-5-yl)cyclopropyl)-2-methylbenzamide], the IC50 under setting [2] is below 100 nM.
Consider `COc1cc(C2(NC(=O)c3cc(OCC(N)C(C)C)ccc3C)CC2)c2cccnc2c1` (stereo not shown) [Compound 572, 5-(2-Amino-3-methylbutoxy)-N-(1-(7-methoxyquinolin-5-yl)cyclopropyl)-2-methylbenzamide], for which the IC50 under setting [2] was below 100 nM.
As for `CN[C@H](C)COc1ccc(C)c(C(=O)NC2(c3cc(OC)cc4ncccc34)CC2)c1` [Compound 573, (R)-N-(1-(7-Methoxyquinolin-5-yl)cyclopropyl)-2-methyl-5-(2-(methylamino)propoxy)benzamide], the IC50 under setting [2] was below 100 nM.
In the case of `Cc1ccc(OCCN(C)C)cc1NC(=O)C(C)c1cccc2ccccc12` (stereo not shown) [Compound 577, N-(5-(2-(Dimethylamino)ethoxy)-2-methylphenyl)-2-(naphthalen-1-yl)propanamide], the IC50 under setting [1] was above 5000 nM.
For `Cc1ccc(OC[C@@H]2CCN2C)cc1C(=O)NC1(c2cc(-c3ccnn3C)cc3ncccc23)CC1` [Compound 578, (S)-2-Methyl-N-(1-(7-(1-methyl-1H-pyrazol-5-yl)quinolin-5-yl)cyclopropyl)-5-((1-methylazetidin-2-yl)methoxy)benzamide], the IC50 under setting [2] is below 100 nM.
In the case of `Cc1ccc(OC[C@@H]2CCN2C)cc1C(=O)NC1(c2cc(OC(F)(F)F)cc3ncccc23)CC1` [Compound 579, (S)-2-Methyl-5-((1-methylazetidin-2-yl)methoxy)-N-(1-(7-(trifluoromethoxy)quinolin-5-yl)cyclopropyl)benzamide], under setting [2], the IC50 is below 100 nM.
On to `Cc1ccc(OCCN(C)C)cc1NC(=O)C1(c2cccc3ccccc23)CC1` [Compound 580, N-(5-(2-(Dimethylamino)ethoxy)-2-methylphenyl)-1-(naphthalen-1-yl)cyclopropane-1-carboxamide], for which, under setting [1], the half-maximal inhibitory concentration (IC50) is above 5000 nM.
Same read-out and setting: with `Cc1cc(C2(NC(=O)c3cc(OC[C@@H]4CCN4C)ccc3C)CC2)c2cccnc2c1` [Compound 581, (S)-2-Methyl-5-((1-methylazetidin-2-yl)methoxy)-N-(1-(7-methylquinolin-5-yl)cyclopropyl)benzamide] the figure was below 100 nM.
For `Cc1ccc(OC[C@@H]2CCN2C)cc1C(=O)NC1(c2cc(-c3ccn(C)n3)cc3ncccc23)CC1` [Compound 582, (S)-2-Methyl-N-(1-(7-(1-methyl-1H-pyrazol-3-yl)quinolin-5-yl)cyclopropyl)-5-((1-methylazetidin-2-yl)methoxy)benzamide], the half-maximal inhibitory concentration (IC50) under setting [2] is below 100 nM.
On to `COc1cc(C2(NC(=O)c3cc(Oc4ccncc4)ccc3C)CC2)c2cccnc2c1` [Compound 584, N-(1-(7-Methoxyquinolin-5-yl)cyclopropyl)-2-methyl-5-(pyridin-4-yloxy)benzamide], for which the IC50 under setting [1] was 100 to 1000 nM.
With `Cc1ccc(OC[C@@H]2CCN2C)cc1C(=O)NC1(c2cc(Cl)nc3cc(F)ccc23)CC1` [Compound 586, (S)-N-(1-(2-Chloro-7-fluoroquinolin-4-yl)cyclopropyl)-2-methyl-5-((1-methylazetidin-2-yl)methoxy)benzamide], the half-inhibitory concentration (IC50) under setting [1] was below 100 nM.
On to `Cc1ccc(OC[C@@H]2CCN2C)cc1C(=O)NC1(c2cc(OC(C)C)cc3ncccc23)CC1` [Compound 587, (S)-N-(1-(7-Isopropoxyquinolin-5-yl)cyclopropyl)-2-methyl-5-((1-methylazetidin-2-yl)methoxy)benzamide], for which the concentration for half-maximal inhibition (IC50) under setting [1] was below 100 nM.
In the case of `Cc1ccc(OC[C@@H]2CCN2C)cc1C(=O)NC1(c2cc(-c3nccs3)cc3ncccc23)CC1` [Compound 590, (S)-2-Methyl-5-((1-methylazetidin-2-yl)methoxy)-N-(1-(7-(thiazol-2-yl)quinolin-5-yl)cyclopropyl)benzamide], the IC50 under setting [2] is below 100 nM.
On the same count and under the same terms, with `COCCOc1cc(C2(NC(=O)c3cc(OC[C@@H]4CCN4C)ccc3C)CC2)c2cccnc2c1` [Compound 591, (S)-N-(1-(7-(2-Methoxyethoxy)quinolin-5-yl)cyclopropyl)-2-methyl-5-((1-methylazetidin-2-yl)methoxy)benzamide] the figure was below 100 nM; with `Cc1ccc(OC[C@@H]2CCN2C)cc1C(=O)NC1(c2cc(Oc3ccccc3)cc3ncccc23)CC1` [Compound 592, (S)-2-Methyl-5-((1-methylazetidin-2-yl)methoxy)-N-(1-(7-phenoxyquinolin-5-yl)cyclopropyl)benzamide], below 100 nM.
Turning to `COc1cc(C(C)N2CCC(C(=O)NCc3cccc(F)c3)CC2)c2cccnc2c1` (stereo not shown) [Compound 593, N-(3-Fluorobenzyl)-1-(1-(7-methoxyquinolin-5-yl)ethyl)piperidine-4-carboxamide], under setting [2], the half-inhibitory concentration (IC50) lay in the range of 1000 to 5000 nM.
In the case of `Cc1ccc(OC[C@@H]2CCN2C)cc1C(=O)NC1(c2cc(-c3ccccc3)cc3ncccc23)CC1` [Compound 594, (S)-2-Methyl-5-((1-methylazetidin-2-yl)methoxy)-N-(1-(7-phenylquinolin-5-yl)cyclopropyl)benzamide], under setting [2], the 50% inhibitory concentration (IC50) is below 100 nM.
For the compound `COc1cc(C2(NC(=O)c3cc(OC[C@@]45CCCN4C[C@H](F)C5)ccc3C)CC2)c2cccnc2c1` [Compound 596, 5-(((2R,7aS)-2-Fluorohexahydro-1H-pyrrolizin-7a-yl)methoxy)-N-(1-(7-methoxyquinolin-5-yl)cyclopropyl)-2-methylbenzamide], the IC50 under setting [2] was below 100 nM.
For the compound `COc1cc(C2(NC(=O)c3cc(OC[C@@H]4CCN4C)c(N)cc3C)CC2)c2cccnc2c1` [Compound 597, (S)-4-Amino-N-(1-(7-methoxyquinolin-5-yl)cyclopropyl)-2-methyl-5-((1-methylazetidin-2-yl)methoxy)benzamide], the IC50 under setting [1] was below 100 nM.
As to `Cc1ccc(OC[C@@H]2CCN2C)cc1C(=O)NC1(c2cc(OCc3ccccc3)cc3ncccc23)CC1` [Compound 598, (S)-N-(1-(7-(Benzyloxy)quinolin-5-yl)cyclopropyl)-2-methyl-5-((1-methylazetidin-2-yl)methoxy)benzamide], the IC50 under setting [1] is below 100 nM.
For the compound `CC(c1cc(-c2cccs2)cc2ccccc12)N1CCC(C(=O)NCc2cccc(F)c2)CC1` (stereo not shown) [Compound 599, N-(3-Fluorobenzyl)-1-(1-(3-(thiophen-2-yl)naphthalen-1-yl)ethyl)piperidine-4-carboxamide], under setting [2], the IC50 was 1000 to 5000 nM.
With `Cc1ccc(OC[C@@H]2CCN2C)cc1C(=O)NC1(c2cc(C(F)(F)F)cc3ncccc23)CC1` [Compound 600, (S)-2-Methyl-5-((1-methylazetidin-2-yl)methoxy)-N-(1-(7-(trifluoromethyl)quinolin-5-yl)cyclopropyl)benzamide], the concentration for half-maximal inhibition (IC50) under setting [1] was below 100 nM.
Turning to `CC(C)=Cc1cc(C2(NC(=O)c3cc(OC[C@@H]4CCN4C)ccc3C)CC2)c2cccnc2c1` [Compound 603, (S)-2-Methyl-5-((1-methylazetidin-2-yl)methoxy)-N-(1-(7-(2-methylprop-1-en-1-yl)quinolin-5-yl)cyclopropyl)benzamide], the IC50 under setting [2] is below 100 nM.
For the compound `Cc1ccc(OC[C@@H]2CCN2)cc1C(=O)NC1(c2cc(-c3cccs3)cc3ncccc23)CC1` [Compound 608, (S)-5-(Azetidin-2-ylmethoxy)-2-methyl-N-(1-(7-(thiophen-2-yl)quinolin-5-yl)cyclopropyl)benzamide], under setting [2], the IC50 is below 100 nM.
For `Cc1ccc(OC[C@@H]2CCN2C)cc1C(=O)NC1(c2cc(C3=CCCC3)cc3ncccc23)CC1` [Compound 609, (S)-N-(1-(7-(Cyclopent-1-en-1-yl)quinolin-5-yl)cyclopropyl)-2-methyl-5-((1-methylazetidin-2-yl)methoxy)benzamide], the IC50 under setting [2] was below 100 nM.
Consider `Cc1ccc(OC[C@@H]2CCN2C)cc1C(=O)NC1(c2cc(N(C)C)nc3cc(F)ccc23)CC1` [Compound 611, (S)-N-(1-(2-(Dimethylamino)-7-fluoroquinolin-4-yl)cyclopropyl)-2-methyl-5-((1-methylazetidin-2-yl)methoxy)benzamide], for which the IC50 under setting [1] was below 100 nM.
On to `C=Cc1cc(C2(NC(=O)c3cc(OC[C@@H]4CCN4)ccc3C)CC2)c2cccnc2c1` [Compound 612, (S)-5-(Azetidin-2-ylmethoxy)-2-methyl-N-(1-(7-vinylquinolin-5-yl)cyclopropyl)benzamide], for which the IC50 under setting [2] is below 100 nM.

In general, IC50 refers to the concentration that inhibits the measured activity by half.

The values are drawn from patent publication US20250025443A1, “COMPOUNDS AND METHODS FOR TREATING CORONA VIRUSES” (CLEAR CREEK BIO, INC., priority 2021, published 2025).
